Compound | melting point
CCCCCCCCCCOc1ccc2c(=O)c3cccc(C(=O)OCC)c3oc2c1CCC(=O)OCC | 69 to 70 °C
COCc1sc(N)nc1C | 132 to 135 °C
COC(=O)c1ccc(S(C)(=O)=O)c(C=O)c1Cl | 98 to 105 °C
O=C(NCc1cccnc1)c1ccc2n1Cc1ccccc1N(C(=O)c1ccc3c(c1)Cc1ccccc1-3)C2 | 116 to 119 °C
CN(c1ccc(-c2ccc(C(=N)N)cc2)nn1)[C@H]1CC[C@H](C(=O)O)CC1 | 308 to 310 °C
CC(C)(C)c1ccc(/C=C/C(=O)Nc2ccc3c(c2)CCO3)cc1 | 175 to 176 °C
Clc1ccc(C2=CCN(CCCCn3cncn3)CC2)cc1 | 101 to 103 °C
O=C(O)CCC(CS(=O)(=O)c1ccc2ccccc2c1)C(=O)N(CCC1CCCCC1)CCC1CCCCC1 (centres undefined) | 138 to 140 °C
CN(C)CCCOc1ccc2c(c1)C(c1ccccc1)CC(=O)N2 (centres undefined) | 134 to 136 °C
CC(C)(C)OC(=O)N1CCn2c(c(I)c(C#N)c2-c2ccccc2)C1 | 174 to 178 °C
CCC(CC)c1ccc(N(Cc2ccc(-c3csc(COc4cncc(C(=O)O)c4)n3)cc2)C(C)C)cc1 | 202 °C
COc1ccc(C2=NN(c3ccc(CCO)cc3)C(=O)[C@H]3CC=CC[C@@H]23)cc1OC (relative stereo) | 137 to 139 °C
CC(=O)n1c(=O)n(-c2ccc3c(c2)OCO3)c2ncccc21 | 211 to 212 °C
COC(=O)C(=O)CC(=O)c1ccc(Cl)cc1 | 108 to 110 °C
O=C1N(CC2CCCO2)c2cccc(Br)c2C12COc1cc3c(cc12)CCO3 (centres undefined) | 137 to 141 °C
O=C(O)c1ccc(N2C(=O)c3ccc(C(=O)O)cc3C2=O)cc1 | 377 to 379 °C
CCC(COS(C)(=O)=O)Nc1ccc(Cl)cc1[N+](=O)[O-] (centres undefined) | 91 to 93 °C
Cc1ccccc1CC(=NC#N)NC(NC(=O)Cc1ccc2c(c1)OCO2)C(C)(C)C (centres undefined) | 167 to 169 °C
COC(=O)C(=O)c1ccc(OCCCCSc2ccc3ccccc3c2)cc1 | 64 to 65 °C
O=C1c2cc([N+](=O)[O-])ccc2CCC1Br (centres undefined) | 94 to 96 °C
CC12C=CC(C)(O1)C(Br)C(=O)C2Br (centres undefined) | 115 to 120 °C
CN(CC#Cc1cc(CN2CCOCC2)cc2c(=O)c(C(=O)NCc3ccc(Cl)cc3)cn(C)c12)CC(O)CO (centres undefined) | 140 to 142 °C
CCOC(=O)c1cccc(-n2cc(-c3ccccc3)c3c(N)ncnc32)c1 | 176 to 177 °C
COC(=O)C=Cc1nn(-c2ccccc2)c2c1CCC2 | 147 to 148 °C
CC(Br)C(=O)NC(C)(C)c1ccccc1 (centres undefined) | 102 to 103 °C

Compound | melting point
CCOC(=O)C1CN(C(C)=O)CCC1=O (centres undefined) | 53 to 55 °C
COc1ccc(-c2nn(CC(C)=O)c(=O)cc2-c2ccncc2)cc1 | 68.3 to 70.6 °C
CCP(=O)(CC)Cc1ccc(NC(=O)/C=C/c2cccc(-c3ccc(C)cc3)c2)cc1 | 197 to 198 °C
COC(=O)NCCc1cccc(C(=O)C=CN(C)C)c1 | 95 to 97 °C
CC(=O)c1ccc(N(C(C)=O)c2ccccc2)cc1 | 118 to 120 °C
O=C(c1cc(Cl)ccc1Cl)c1ccccc1I | 64 to 66 °C
Cc1cc(C2=NN=C(C=NNC(N)=O)Cc3cc4c(cc32)OCO4)ccc1[N+](=O)[O-] | 260 to 264 °C
CC(C)(C)OC(=O)N1CCC(c2nc3cc(-c4ccc(S(C)(=O)=O)cc4F)cc(F)c3o2)CC1 | 155 to 158 °C
Cc1ncnn1-c1cc(F)ccc1CNC(=O)c1nc2n(c(=O)c1O)CCN2C(C)C | 212 °C
Cc1cccc2[nH]c(=O)n3ccnc3c12 | 308 to 310 °C
CC(=O)Nc1ccc(-c2ccc3c(c2)CC(C(=O)O)O3)cc1 (centres undefined) | 274 to 276 °C
CC(C)(c1cc(F)cc([N+](=O)[O-])c1O)c1cc(Cl)cc([N+](=O)[O-])c1O | 160 °C
COC(=O)c1cccc(C(=O)NC2N=C(c3ccccc3F)c3ccccc3N(CC(=O)N3CC4CCC(CC4)C3)C2=O)c1 (racemic) | 166 to 177 °C
COc1cc(-c2cn(Cc3ccccc3)c(=O)c3ccccc23)ccc1O | 165 to 167 °C
CCCCc1nc(C(=O)C(C)C)c(C#N)n1Cc1ccc(-c2ccccc2-c2nnnn2C(c2ccccc2)(c2ccccc2)c2ccccc2)cc1 | 115 to 116 °C
CC(=O)c1cncn1C1c2ccccc2CC1(C)C (centres undefined) | 69 to 70 °C
C=CCOc1ccc2c(c1)CCC(=O)N2 | 123 to 125 °C
Cc1nnnn1C(C=CC=O)=C(c1ccc(F)cc1)c1ccc(F)cc1 | 72 to 78 °C
O=C1CCCc2c1c1cccc3c1n2CCC3 | 160 to 164 °C
CSc1nn(-c2c(Cl)cc(Cl)cc2Cl)c(N)c1C(N)=O | 198 to 199 °C
O=C(O)c1cnc2c3cc(NC(=O)C4CCCCC4)ccc3ncn2c1=O | 311 to 314 °C
O=Cc1ccccc1C(=O)c1ccc(Cl)cc1 | 112 to 113 °C
Cc1ccc(=S)n(-c2cccc(C(F)(F)F)c2)c1 | 96 °C
CNc1ccc(-c2cnc3[nH]c(=O)n(CC4CCOCC4)c3n2)cn1 | > 260 °C
COc1ccc(C=Cc2ccc(CBr)c(Cl)c2)c(Cl)c1 | 106 to 108 °C

Compound | melting point
Cc1ccc(Cn2c(-c3ccc(C(O)(C(F)(F)F)C(F)(F)F)cc3)cc3ccccc3c2=O)cc1 | 267 to 268 °C
CCOCC(=O)Nc1nc2ccccc2s1 | 113 to 114 °C
COC(=O)C(Cc1cccc(C2(OC)CCOCC2)c1)c1nc(-c2ccccc2)c(-c2ccc(S(N)(=O)=O)cc2)o1 (centres undefined) | 88.7 to 94.9 °C
CC1(C)CCC(C)(C)c2cc(OCc3ccc(CN)cc3)ccc21 | 77 to 79 °C
Cc1cc(-c2cc(C(F)(F)F)nn2-c2ccc(S(N)(=O)=O)c(F)c2)ccc1-c1cscn1 | 125 to 127 °C
COC(=O)c1c(F)cc(OCCNC(=O)C2Cc3ccccc3N2S(=O)(=O)c2ccc(-c3ccc(F)cc3)cc2)cc1F (centres undefined) | 83 °C
COC(=O)C1=C(c2ccccc2)NC(C)=C(C(=O)OC(C)C)C1c1cccc([N+](=O)[O-])c1 (centres undefined) | 184 to 186 °C
Cc1ccc(N2CCN(C)CC2)c2c1CC[C@@H](NC(=O)c1ccc(Cl)cc1)C2 | 210 to 212 °C
CCCn1cc(-c2ccc3cc4c(cc3c2)C(C)(C)CCC4(C)C)cc1C(=O)O | 143 to 145 °C
Cc1ccc(N2CCSC2N)c([N+](=O)[O-])c1 (centres undefined) | 132 to 134 °C
CCCOC(=O)Nc1ccc(OCC2CC2(Cl)Cl)c(Cl)c1 (centres undefined) | 57 to 59 °C
CSc1cccc2c3c(n(Cc4ccc(Cl)cc4)c12)C(CC(=O)O)CCC3 (centres undefined) | 141 to 142 °C
COc1ccccc1CC(=O)c1c(O)c2cccnc2n(-c2ccccc2)c1=O | 203 to 205 °C
CC(c1nnc2c(=O)[nH]c3cc(C(F)(F)F)c(Br)cc3n12)P(=O)(O)O (centres undefined) | > 300 °C
O=C(O)c1cc2c(c(C(=O)O)c1)NCCS2 | > 300 °C
OCc1nccc(N2CCCC2)c1Cl | 85 to 86 °C
CCCCCCCCOc1ncc(-c2ccc(OC(=O)[C@H]3CCCO3)cc2)cn1 | 75 °C
C=CCO/N=C(/C(=O)OCC)c1ccc(OCCOc2ccc3ccccc3c2)s1 | 75 to 77 °C
S=c1[nH]ccn1CCCc1cccs1 | 94 to 96.5 °C
CCCCN(Cc1ccccc1)C(=O)Nc1ccc(C)cc1C | 70 to 71 °C
CC(C)(C)OC(=O)NN(C[C@H](O)[C@H](Cc1ccccc1)NC(=O)OCc1ccccc1)C1CCCCC1 | 142 to 143 °C
CC(=O)c1ccccc1Cc1ccccc1 | 42 to 43 °C
Nc1c2c(nc3cc(Cl)ccc13)CCCC2=O | 285 to 287 °C
COC(=O)c1c(O)cccc1OCCCCNC(=O)CCc1ccc(N2CC(=O)NS2(=O)=O)c(O)c1 | 85 to 90 °C
CN(C)C1(c2ccccc2)CCC(CC(=O)NCCCCc2c[nH]c3ccccc23)CC1 (centres undefined) | 186 °C

Compound | melting point
CCCCCCCCCCCC(=O)N[C@@H](CC(C)C)C(=O)N[C@@H](C(C)C)[C@@H](O)c1c(-c2ccccc2)c1=O | 123 to 127 °C
CCC1Cc2cc(OCC(=O)O)c(Cl)c(Cl)c2C1O (centres undefined) | 121 to 122 °C
Cc1c(C(F)(F)F)n[nH]c1-c1ccc(Cl)cc1 | 139 °C
Cc1noc(NS(=O)(=O)c2sccc2-c2ccc3c(c2)OCO3)c1Br | 183 to 186 °C
N#CCC(C#N)=NNc1c(Cl)cc(C(F)(F)F)cc1Cl | 80 to 82 °C
COC(=O)C=C(C)c1ccc(CCC(C)(C)NCC(O)c2ccccc2)cc1 (centres undefined) | 98 to 102 °C
O=C(Nc1nc(-c2ccco2)c(C(=O)C2CCOCC2)s1)c1ccco1 | 196 to 198 °C
Cc1csc(Nc2nc(C(C)(C)C)c(O)c(C(C)(C)C)n2)n1 | 171 to 173 °C
CC1(C)SC(c2ccccc2O)NC1C(=O)O (centres undefined) | 179 to 181 °C
CC(C)N(CCC(CCN1CCCC1)(C(N)=O)c1ccccc1)C(C)C (centres undefined) | 79 to 80 °C
Nc1ncnc2c1c(-c1ccc(OCc3ccccc3)cc1)cn2-c1ccc(OCCn2ccnc2)cc1 | 105 to 107 °C
CC(Nc1cc(Cl)nc(SCC(=O)O)n1)c1ccc(Cl)cc1 (centres undefined) | 155 to 160 °C
CC(Oc1ccc(Cl)cc1Cl)c1nnc(N=C=O)s1 (centres undefined) | 176 to 179 °C
OCCc1c2ccccc2c(Br)c2ccccc12 | 180 to 182 °C
CNC(=C[N+](=O)[O-])NCCCCc1ccc(CN(C)C)s1 | 104 to 106 °C
CC(C)c1cc(O)cc2cc(-c3ccc(O)cc3)oc12 | 192 to 194 °C
CC12CC(=O)C3C(CCC4CC5OC5CC43C)C1CCC2C#N (centres undefined) | 206 to 208 °C
Cc1c(-c2ccccc2)cccc1-c1ccc2ccccc2c1 | 106 to 107 °C
N#CCCNC(=O)c1cccc(-c2cccc3oc(Cc4cccc(C(F)(F)F)c4)cc23)c1 | 107 to 108 °C
Cc1ccc(NCCCNc2ncc(Cc3ccc(C)nc3)c(=O)[nH]2)nc1 | 164 to 166 °C
CCOC(=O)N1C(=S)NC(C)=C(C(=O)OC)C1c1cccc(Cl)c1Cl (centres undefined) | 190 to 191 °C
O=C(OCCCl)C(O)c1ccccc1 (centres undefined) | 43 to 45 °C
CCCCCCCCCCc1ccc(C(=O)COC)c(OC(=O)c2cc(OC)c(OC)cc2OC)c1 | 80 to 81 °C
Cc1cc(-c2noc(CO)n2)ccc1Br | 111 to 112 °C
